This note sets out measurements from ChEMBL document CHEMBL4229406, “The tyrosinase inhibitory effects of isoxazolone derivatives with a (Z)-β-phenyl-α, β-unsaturated carbonyl scaffold” (Bioorg Med Chem, 2018).

A short description of series [1]: Antioxidant activity assessed as DPPH-radical scavenging activity at 1 mM incubated for 30 mins under dark condition. The class given is functional. In general terms: DPPH is a stable violet radical that fades when it is reduced.
In series [2] the target is T1, Tyrosinase (Agaricus bisporus, UniProt O42713).
T1 sequence (O42713 whole entry): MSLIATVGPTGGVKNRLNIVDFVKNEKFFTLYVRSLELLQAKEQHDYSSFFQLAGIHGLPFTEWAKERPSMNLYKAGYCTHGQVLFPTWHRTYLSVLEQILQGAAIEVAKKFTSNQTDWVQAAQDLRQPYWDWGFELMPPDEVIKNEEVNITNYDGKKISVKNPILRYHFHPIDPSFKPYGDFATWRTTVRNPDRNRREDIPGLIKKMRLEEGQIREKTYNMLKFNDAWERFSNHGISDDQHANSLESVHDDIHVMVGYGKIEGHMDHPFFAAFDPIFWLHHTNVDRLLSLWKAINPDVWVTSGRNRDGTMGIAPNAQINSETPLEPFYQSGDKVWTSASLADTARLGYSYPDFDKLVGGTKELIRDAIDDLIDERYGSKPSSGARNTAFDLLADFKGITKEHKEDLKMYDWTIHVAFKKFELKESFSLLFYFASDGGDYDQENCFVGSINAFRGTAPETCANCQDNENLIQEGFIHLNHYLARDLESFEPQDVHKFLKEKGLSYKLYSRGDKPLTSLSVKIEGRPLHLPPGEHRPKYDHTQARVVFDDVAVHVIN
The experiment in a line: Inhibition of mushroom tyrosinase using L-tyrosine as substrate measured after 30 mins.

In series [3] the test system is B16-F10. As to the kind of experiment: Antimelanogenic activity in mouse B16F10 cells assessed as inhibition of alpha-MSH-stimulated melanin synthesis measured after 24 hrs by ELISA. It is filed as functional, cell-based. A general note: ELISA stands for enzyme-linked immunosorbent assay.
Series [4] can be described thus: Cytotoxicity against mouse B16F10 cells assessed as cell viability at 25 uM after 24 hrs by MTT assay relative to control. The class given is cell-based, B16-F10. The settings on record: read-out: Activity. A general note: Formazan colour is commonly taken as a measure of viable cells.
Series [5] concerns the target T2, Tyrosinase (Mus musculus) (UniProt P11344).
T2 sequence (whole entry): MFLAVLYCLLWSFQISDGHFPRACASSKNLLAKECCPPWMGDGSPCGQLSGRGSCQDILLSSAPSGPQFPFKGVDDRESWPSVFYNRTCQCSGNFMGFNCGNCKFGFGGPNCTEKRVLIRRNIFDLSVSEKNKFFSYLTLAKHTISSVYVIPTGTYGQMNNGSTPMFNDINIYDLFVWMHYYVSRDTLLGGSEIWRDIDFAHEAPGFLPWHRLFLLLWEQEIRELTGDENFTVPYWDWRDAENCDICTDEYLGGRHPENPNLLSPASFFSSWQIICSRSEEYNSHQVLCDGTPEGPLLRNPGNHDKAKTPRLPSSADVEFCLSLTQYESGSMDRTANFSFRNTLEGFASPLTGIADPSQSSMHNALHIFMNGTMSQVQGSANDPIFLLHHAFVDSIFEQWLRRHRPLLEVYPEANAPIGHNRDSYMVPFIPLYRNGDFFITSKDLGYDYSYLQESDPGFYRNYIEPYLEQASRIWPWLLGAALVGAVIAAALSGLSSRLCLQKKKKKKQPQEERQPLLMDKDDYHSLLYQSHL
As to the kind of experiment: Inhibition of tyrosinase in alpha-MSH stimulated mouse B16F10 cells using L-dopa as substrate pretreated for 24 hrs followed by substrate addition and measured after 30 mins.

A short description of series [6]: Cytotoxicity against mouse B16F10 cells assessed as cell viability at 5 uM after 24 hrs by MTT assay relative to control. The class given is cell-based, B16-F10. To be noted: read-out: Activity.
Series [7] can be described thus: Cytotoxicity against mouse B16F10 cells assessed as cell viability at 10 uM after 24 hrs by MTT assay relative to control. It is filed as cell-based, B16-F10. The settings on record: read-out: Activity.
For series [8], the target named is T3, Tyrosinase (Agaricus bisporus) (UniProt O42713).
T3 sequence (whole entry): T1 sequence (O42713 whole entry)
The experiment in a line: Competitive inhibition of mushroom tyrosinase using varying levels of L-tyrosine as substrate measured after 30 mins by Lineweaver-Burk plot analysis.

For series [9], the target named is T3, Tyrosinase (Agaricus bisporus). The settings on record: 500 uM.
Description: Inhibition of mushroom tyrosinase at 500 uM using L-tyrosine as substrate measured after 30 mins relative to control

Regarding `O=C1ON=C(c2ccccc2)/C1=C/c1ccccc1O`, the Activity in [1] stood at 74.4%.
`COc1ccc(/C=C2\C(=O)ON=C2c2ccccc2)cc1O`: the Activity in series [1] came out at 54.2%.
Turning to `CCOc1ccc(/C=C2\C(=O)ON=C2c2ccccc2)cc1O`, the Activity in [1] is 66.4%.
What is called IC50 is the point on the concentration scale where inhibition reaches its midpoint. With `O=C1ON=C(c2ccccc2)/C1=C/c1ccc(O)cc1O`, the Activity in series [1] is 46%. Besides, in series [2], half-maximal inhibition (IC50) was put at 32.1 µM.
Consider `O=C1O[C@H]([C@@H](O)CO)C(O)=C1O`, for which the Activity in series [1] amounted to 87.5%.
Same read-out and setting: the result for `COc1ccc(/C=C2\C(=O)ON=C2c2ccccc2)c(OC)c1` reads 41.8%.
As to `O=C1ON=C(c2ccccc2)/C1=C/c1ccc(O)cc1`, the Activity in series [1] is 48.4%.
On the same count and under the same terms, the result for `COc1cc(/C=C2\C(=O)ON=C2c2ccccc2)cc(OC)c1O` reads 94.8%; that for `COc1ccc(/C=C2\C(=O)ON=C2c2ccccc2)cc1OC`, 49.8%.
Broadly, the inhibition is the percentage by which the read-out fell short of the control. `O=C1ON=C(c2ccccc2)/C1=C/c1ccc(O)c(Br)c1`: the inhibition entry in series [3], in [5] and in series [8] was “Dose-dependent effect” each time. Besides, in series [4], the viability at 24 h, 25 µM came to 96.3%. In addition, the Activity in series [1] turned out to be 82.6%. Also, the viability at 24 h, 5 µM in series [6] was 100%. For the same molecule, the viability at 24 h, 10 µM in series [7] amounted to 98.7%. The midpoint of inhibition in series [2], the IC50, lay at 14.6 µM.
With `COc1ccc(/C=C2\C(=O)ON=C2c2ccccc2)cc1`, the Activity in series [1] amounted to 47.2%.
The same measure, in the same setting: the result for `COc1cc(/C=C2\C(=O)ON=C2c2ccccc2)ccc1O` reads 75.3%.
`OC[C@H]1O[C@@H](Oc2ccc(O)cc2)[C@H](O)[C@@H](O)[C@@H]1O` gave an inhibition in series [9] of 32.6%.
Regarding `O=C1ON=C(c2ccccc2)/C1=C/c1ccc(O)c(O)c1`, the Activity in series [1] amounted to 98.6%.
